Assays:
PI3K (p110β/p85α) = PI3K (p110β/p85α) (Homo sapiens (Human), UniProt P42338); assay: PI3K HTRF enzyme assay, p110β/p85α; assay type: biochemical; conditions: read-out: % inhibition @ 500 nM p110β; compound at 500 nM, 100 μM ATP
Procedure: Recombinant PI3K (p110α/p85α) and PI3K (p110β/p85α) were from Millipore. […] Briefly, the compounds of interest dissolved in 100% DMSO were dispensed in all wells, following which the mixture of PIP2 and enzyme was added. PI3K (p110α/p85α) and PI3K (p110β/p85α) enzyme reactions were initiated in the presence of 10 μM and 100 μM ATP, respectively, and incubated for 30 min at room temperature. STOP solution prepared 2 hours prior to use was added to stop reactions, and mixed well. Detection solution prepared 2 hours prior to use was added, and incubated at room temperature for 17 hours in the dark. […] HTRF ration was calculated as follows: […]

PI3K (p110α/p85α) = PI3K (p110α/p85α) (Homo sapiens (Human), UniProt P42336); assay: PI3K HTRF enzyme assay, p110α/p85α; assay type: biochemical; conditions: read-out: % inhibition @ 500 nM p110α; compound at 500 nM, 10 μM ATP
How it was run: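 Recombinant PI3K heterodimers with PIP2 substrate; reactions ran 30 min at room temperature with 10 μM ATP for p110α/p85α and 100 μM ATP for p110β/p85α. After stop, HTRF detection followed 17 h incubation in the dark at room temperature; HTRF ratio used as read-out.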

recombinant mTOR = recombinant mTOR (Homo sapiens (Human), UniProt P42345); assay: mTOR kinase assay (33P incorporation into 4EBP1); assay type: biochemical; conditions: compound at 10 μM, 10 μM ATP
How it was run: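 Recombinant human mTOR (50 ng) phosphorylated His-tagged 4EBP1 (300 ng) with 10 μM ATP plus [γ-33P]-ATP in HEPES pH 7.5, MnCl2, EGTA and DTT for 30 min at 30° C. Labelled 4EBP1 was filter-captured and counted. IC50 was derived from eight-point duplicate dilution series.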

A549 cells = assay: Antiproliferation assay (MTS), A549; assay type: cell-based; conditions: Homo sapiens; A549, 72 hours of drug treatment
PC-3 cells = assay: Antiproliferation assay (MTS), PC-3; assay type: cell-based; conditions: Homo sapiens, PC3, 72 hours of drug treatment
Procedure: (1) Antiproliferation Assay
PC-3, U-87 MG, HCC1954 and BT474 cell lines were purchased from the American Type Culture Collection (ATCC, USA). PC-3 was grown in F12K medium (GIBCO) containing 10% FBS. U-87 MG was grown in Eagle's minimum essential medium (MEM, Sigma) supplemented with nonessential amino acids, L-glutamine, sodium pyruvate, and 10% FBS. HCC1954 was grown in RPMI medium (GIBCO) containing 10% FBS. […] All cells were incubated in a humidified atmosphere containing 5% CO2 at 37° C.
Cell lines were inoculated to the wells of a 96-well culture plate with 1000-5000 cells per well. The compounds were prepared and used to treat cells with less than 1% DMSO. After 72 hours of drug treatment, the viability of each cell line was examined by CellTiter 96 Aqueous Non-Radioactive Cell Proliferation Assay (Promega). The living cells were detectable by conversion of MTS into aqueous, soluble formazan. MTS/PMS solution was freshly prepared and 20 μl of MTS/PMS solution was added to each well of the 96-well cultured plate. The assay plate was incubated for 3 hours and the absorbance at 490 nm was measured by EMax ELISA Reader (Molecular Devices). The IC50 values of compounds were determined after carrying out assays at eight serially diluted concentrations of each compound in triplicate, and are the mean of three separate determinations. The results were analyzed using linear regression software (GraphPad Prism 5; GraphPad Software Inc.).

p-S6K (mTORC1) = assay: Immunoblotting, PI3K/Akt/mTOR signal transduction, p-S6K; assay type: cell-based; conditions: Homo sapiens; PC-3 cell
From the text: (§1) For immunoblotting experiments, A549 cells were inoculated to the wells of a 6-well culture plate and cultured overnight. […] Proteins were separated by SDS-PAGE electrophoresis and transferred to PVDF membrane. Protein expression was immunobloted by various primary antibodies and detected by Immobilon Western Chemiluminescent HRP Substrate (Millipore). Antibody against Akt, phosphor-Akt (Ser473), phosphor-Akt (Thr308), p70 S6 Kinase, phosphor-p70 S6 Kinase (Thr389), 4E-BP1, and phosphor-4E-BP1 (Thr37/46) were purchased form Cell Signaling Technology.

p-Akt S473 (mTORC2) = assay: Immunoblotting, PI3K/Akt/mTOR signal transduction, p-Akt S473; assay type: cell-based; conditions: Homo sapiens; PC-3 cell
From the text: as §1

p-Akt T308 (PI3K) = assay: Immunoblotting, PI3K/Akt/mTOR signal transduction, p-Akt T308; assay type: cell-based; conditions: Homo sapiens; PC-3 cell
From the text: as §1

PI3K (p110β/p85α), sequence (P42338 whole entry, species assumed): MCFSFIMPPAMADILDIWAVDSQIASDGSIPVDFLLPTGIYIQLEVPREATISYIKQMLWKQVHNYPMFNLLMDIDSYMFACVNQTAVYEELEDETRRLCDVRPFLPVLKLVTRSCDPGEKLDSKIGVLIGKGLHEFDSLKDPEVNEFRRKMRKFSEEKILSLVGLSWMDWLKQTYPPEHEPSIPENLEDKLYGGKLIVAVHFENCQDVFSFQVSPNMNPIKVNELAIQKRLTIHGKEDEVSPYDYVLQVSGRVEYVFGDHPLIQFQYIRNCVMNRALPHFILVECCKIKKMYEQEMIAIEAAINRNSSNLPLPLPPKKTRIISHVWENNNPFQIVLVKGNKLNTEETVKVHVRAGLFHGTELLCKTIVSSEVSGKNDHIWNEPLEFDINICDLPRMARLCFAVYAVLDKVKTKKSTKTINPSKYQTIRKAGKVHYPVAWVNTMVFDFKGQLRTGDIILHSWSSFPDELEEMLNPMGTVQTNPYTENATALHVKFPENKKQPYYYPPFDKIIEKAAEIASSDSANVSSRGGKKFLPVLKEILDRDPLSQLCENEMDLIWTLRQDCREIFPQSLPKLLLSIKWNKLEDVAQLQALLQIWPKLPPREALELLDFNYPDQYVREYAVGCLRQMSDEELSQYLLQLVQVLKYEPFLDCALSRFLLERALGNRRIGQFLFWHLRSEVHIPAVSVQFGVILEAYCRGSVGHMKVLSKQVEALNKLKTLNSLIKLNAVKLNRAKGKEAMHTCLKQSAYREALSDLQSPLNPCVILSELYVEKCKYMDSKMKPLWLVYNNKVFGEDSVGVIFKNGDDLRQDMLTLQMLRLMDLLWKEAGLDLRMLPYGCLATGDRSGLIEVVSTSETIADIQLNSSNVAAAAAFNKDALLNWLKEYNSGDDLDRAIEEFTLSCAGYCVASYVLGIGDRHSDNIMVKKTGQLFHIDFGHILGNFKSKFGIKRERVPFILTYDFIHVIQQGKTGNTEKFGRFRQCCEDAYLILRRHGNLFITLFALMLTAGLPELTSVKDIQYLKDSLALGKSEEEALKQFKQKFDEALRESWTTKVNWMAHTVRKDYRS
PI3K (p110β/p85α), sequence (P27986 whole entry partner, species assumed): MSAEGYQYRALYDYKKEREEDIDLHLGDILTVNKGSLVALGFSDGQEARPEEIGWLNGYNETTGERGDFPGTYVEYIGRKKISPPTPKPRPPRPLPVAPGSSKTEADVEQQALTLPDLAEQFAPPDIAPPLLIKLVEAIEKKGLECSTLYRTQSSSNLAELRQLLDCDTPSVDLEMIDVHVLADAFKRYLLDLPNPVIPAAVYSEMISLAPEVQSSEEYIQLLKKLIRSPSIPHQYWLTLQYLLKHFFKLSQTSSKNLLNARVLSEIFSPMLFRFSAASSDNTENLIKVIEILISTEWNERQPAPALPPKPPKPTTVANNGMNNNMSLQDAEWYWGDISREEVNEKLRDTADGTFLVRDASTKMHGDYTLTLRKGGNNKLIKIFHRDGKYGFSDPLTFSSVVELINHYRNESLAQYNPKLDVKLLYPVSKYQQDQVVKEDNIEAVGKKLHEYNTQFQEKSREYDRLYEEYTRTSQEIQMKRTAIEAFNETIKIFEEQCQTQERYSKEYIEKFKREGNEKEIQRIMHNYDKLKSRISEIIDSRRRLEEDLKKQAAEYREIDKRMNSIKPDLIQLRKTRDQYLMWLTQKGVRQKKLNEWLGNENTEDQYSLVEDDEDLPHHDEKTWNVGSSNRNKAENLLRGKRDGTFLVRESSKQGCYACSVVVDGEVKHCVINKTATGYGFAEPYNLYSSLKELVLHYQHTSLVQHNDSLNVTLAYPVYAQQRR
recombinant mTOR, sequence (P42345 1360-2549): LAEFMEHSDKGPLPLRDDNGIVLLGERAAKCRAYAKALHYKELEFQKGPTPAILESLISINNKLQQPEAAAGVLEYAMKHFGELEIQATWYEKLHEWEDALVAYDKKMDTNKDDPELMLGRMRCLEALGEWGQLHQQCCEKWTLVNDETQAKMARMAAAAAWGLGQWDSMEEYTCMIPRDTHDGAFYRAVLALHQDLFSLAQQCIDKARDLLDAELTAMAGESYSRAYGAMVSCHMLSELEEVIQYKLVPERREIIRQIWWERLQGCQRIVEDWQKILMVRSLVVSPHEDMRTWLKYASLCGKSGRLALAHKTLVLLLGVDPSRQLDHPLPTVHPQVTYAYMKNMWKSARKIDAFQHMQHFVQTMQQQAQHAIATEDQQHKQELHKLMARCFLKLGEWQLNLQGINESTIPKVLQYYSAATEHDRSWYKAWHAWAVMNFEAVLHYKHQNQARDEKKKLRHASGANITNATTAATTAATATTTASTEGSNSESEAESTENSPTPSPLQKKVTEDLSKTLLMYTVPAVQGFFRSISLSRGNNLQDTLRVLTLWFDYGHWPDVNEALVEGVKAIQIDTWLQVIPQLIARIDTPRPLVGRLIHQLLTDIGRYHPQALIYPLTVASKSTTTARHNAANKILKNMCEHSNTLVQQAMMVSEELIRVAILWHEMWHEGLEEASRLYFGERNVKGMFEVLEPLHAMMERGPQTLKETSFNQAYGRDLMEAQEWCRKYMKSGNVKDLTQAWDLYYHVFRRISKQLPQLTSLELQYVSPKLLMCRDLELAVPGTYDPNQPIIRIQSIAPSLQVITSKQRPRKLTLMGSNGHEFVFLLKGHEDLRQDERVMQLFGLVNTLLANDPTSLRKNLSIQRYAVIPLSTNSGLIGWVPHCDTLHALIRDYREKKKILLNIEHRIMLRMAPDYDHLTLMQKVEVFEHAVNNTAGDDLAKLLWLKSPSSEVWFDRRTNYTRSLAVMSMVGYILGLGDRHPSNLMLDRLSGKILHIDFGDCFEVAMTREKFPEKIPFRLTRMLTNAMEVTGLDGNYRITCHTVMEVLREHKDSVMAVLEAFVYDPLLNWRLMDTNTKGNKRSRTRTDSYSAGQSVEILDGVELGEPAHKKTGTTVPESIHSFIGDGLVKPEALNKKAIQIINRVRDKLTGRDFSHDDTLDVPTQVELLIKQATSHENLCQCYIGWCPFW
PI3K (p110α/p85α), sequence (P42336 whole entry, species assumed): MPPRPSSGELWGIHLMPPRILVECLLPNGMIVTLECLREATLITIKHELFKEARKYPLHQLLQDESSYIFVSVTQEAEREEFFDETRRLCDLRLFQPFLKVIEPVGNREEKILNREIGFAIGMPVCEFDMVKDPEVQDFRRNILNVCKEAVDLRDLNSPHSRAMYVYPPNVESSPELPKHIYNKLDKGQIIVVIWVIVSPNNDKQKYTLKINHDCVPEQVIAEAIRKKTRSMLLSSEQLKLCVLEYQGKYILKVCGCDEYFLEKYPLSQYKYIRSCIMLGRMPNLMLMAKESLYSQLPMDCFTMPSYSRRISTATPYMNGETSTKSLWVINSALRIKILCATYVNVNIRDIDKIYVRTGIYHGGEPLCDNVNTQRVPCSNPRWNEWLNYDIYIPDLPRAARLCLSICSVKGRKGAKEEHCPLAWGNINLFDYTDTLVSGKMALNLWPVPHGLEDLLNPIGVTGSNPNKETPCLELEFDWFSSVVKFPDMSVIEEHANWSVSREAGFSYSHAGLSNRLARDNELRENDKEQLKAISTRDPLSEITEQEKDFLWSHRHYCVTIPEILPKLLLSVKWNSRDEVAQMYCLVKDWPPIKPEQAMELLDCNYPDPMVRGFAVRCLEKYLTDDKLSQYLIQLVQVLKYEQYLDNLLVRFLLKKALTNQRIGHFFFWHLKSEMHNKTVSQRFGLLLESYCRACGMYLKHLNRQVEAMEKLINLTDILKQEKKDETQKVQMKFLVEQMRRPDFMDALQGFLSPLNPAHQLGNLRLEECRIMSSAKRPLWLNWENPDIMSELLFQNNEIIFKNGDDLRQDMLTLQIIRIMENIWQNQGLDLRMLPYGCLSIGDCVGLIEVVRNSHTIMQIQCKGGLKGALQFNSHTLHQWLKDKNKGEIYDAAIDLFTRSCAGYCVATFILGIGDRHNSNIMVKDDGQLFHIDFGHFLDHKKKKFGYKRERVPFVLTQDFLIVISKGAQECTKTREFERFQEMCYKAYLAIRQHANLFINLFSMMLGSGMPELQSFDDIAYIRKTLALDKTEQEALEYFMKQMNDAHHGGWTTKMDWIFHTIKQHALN
PI3K (p110α/p85α), sequence (P27986 whole entry partner, species assumed): as the sequence (P27986 whole entry partner, species assumed) above

inhibition at 0.5 µM (PI3K (p110β/p85α))	inhibition at 0.5 µM (PI3K (p110α/p85α))	inhibition at 10 µM (recombinant mTOR)	IC50 (A549 cells)	IC50 (PC-3 cells)	IC50 (p-S6K (mTORC1))	IC50 (p-Akt S473 (mTORC2))	IC50 (p-Akt T308 (PI3K))	SMILES
4.5%	70%	93%	–	–	–	–	–	CSc1c(Cl)nc(-c2ccc(N)nc2)nc1N1CCOCC1 [MTR-0133, 5-(4-Chloro-5-methylsulfanyl-6-morpholin-4-yl-pyrimidin-2-yl)-pyridin-2-ylamine]
–	–	95%	614 ± 28 nM	188 ± 6 nM	–	–	–	COc1cnc(-c2ccc(NC(=O)Nc3ccc(N)cc3)cc2)nc1N1CCOCC1 [MTR-0350, 1-(4-Amino-phenyl)-3-[4-(5-methoxy-4-morpholin-4-yl-pyrimidin-2-yl)-phenyl]-urea]
–	–	–	–	–	< 10 nM	28.9 nM	–	Cn1c(=O)n(-c2ccc(C(C)(C)C#N)cc2)c2c3cc(-c4cnc5ccccc5c4)ccc3ncc21 [BEZ-235]
–	–	95%	382 ± 23 nM	126 ± 8 nM	–	–	–	CCOc1c(C(=O)N2CCOCC2)nc(-c2ccc(NC(=O)Nc3ccc(N4CCOCC4=O)cc3)cc2)nc1N1CCOCC1 [MTR-0280, 1-{4-[5-Ethoxy-4-(morpholine-4-carbonyl)-6-morpholin-4-yl-pyrimidin-2-yl]-phenyl}-3-[4-(3-oxo-morpholin-4-yl)-phenyl]-urea]
–	–	100%	1360 ± 340 nM	432 ± 20 nM	–	–	–	CCOc1c(C(=O)N2CCN(S(C)(=O)=O)CC2)nc(-c2ccc(NC(=O)Nc3ccccc3)cc2)nc1N1CCOCC1 [MTR-0145, 1-{4-[5-Ethoxy-4-(4-methanesulfonyl-piperazine-1-carbonyl)-6-morpholin-4-yl-pyrimidin-2-yl]-phenyl}-3-phenyl-urea]
20.2%	65%	91%	–	–	–	–	–	COc1cnc(-c2ccc(NC(=S)Nc3cccc(F)c3)cc2)nc1N1CCOCC1 [MTR-0168, 1-(3-Fluoro-phenyl)-3-[4-(5-methoxy-4-morpholin-4-yl-pyrimidin-2-yl)-phenyl]-thiourea]
–	47%	89%	460 ± 28 nM	179 ± 14 nM	–	–	–	CCOc1cnc(-c2ccc(NC(=O)Nc3ccc(N4CCOCC4=O)cc3)cc2)nc1-c1ccncc1 [MTR-0398, 1-[4-(5-Ethoxy-4-pyridin-4-yl-pyrimidin-2-yl)-phenyl]-3-[4-(3-oxo-morpholin-4-yl)-phenyl]-urea]
–	–	–	–	–	451 nM	11.5 nM	–	CS(=O)(=O)N1CCN(Cc2cc3nc(-c4cccc5[nH]ncc45)nc(N4CCOCC4)c3s2)CC1 [GDC-0941]
–	–	–	–	–	< 10 nM	< 10 nM	> 1000 nM	CO[C@H]1C[C@@H]2CC[C@@H](C)[C@@](O)(O2)C(=O)C(=O)N2CCCC[C@H]2C(=O)O[C@H]([C@H](C)C[C@@H]2CC[C@@H](O)[C@H](OC)C2)CC(=O)[C@H](C)/C=C(\C)[C@@H](O)[C@@H](OC)C(=O)[C@H](C)C[C@H](C)/C=C/C=C/C=C/1C [Rapamycin, rapamycin, reference compound]
–	–	–	–	–	64.9 nM	35.6 nM	–	Oc1cccc(-c2nc(N3CCOCC3)c3oc4ncccc4c3n2)c1 [PI-103]
14.2%	70.1%	90%	–	–	–	–	–	CSc1c(Cl)nc(-c2ccc(NC(=O)Nc3ccc(F)cc3)cc2)nc1N1CCOCC1 [MTR-0135, 1-[4-(4-Chloro-5-methylsulfanyl-6-morpholin-4-yl-pyrimidin-2-yl)-phenyl]-3-(4-fluoro-phenyl)-urea]
